For the test, the target named is T1, Renin (Homo sapiens, UniProt P00797).
T1 sequence (P00797 whole entry): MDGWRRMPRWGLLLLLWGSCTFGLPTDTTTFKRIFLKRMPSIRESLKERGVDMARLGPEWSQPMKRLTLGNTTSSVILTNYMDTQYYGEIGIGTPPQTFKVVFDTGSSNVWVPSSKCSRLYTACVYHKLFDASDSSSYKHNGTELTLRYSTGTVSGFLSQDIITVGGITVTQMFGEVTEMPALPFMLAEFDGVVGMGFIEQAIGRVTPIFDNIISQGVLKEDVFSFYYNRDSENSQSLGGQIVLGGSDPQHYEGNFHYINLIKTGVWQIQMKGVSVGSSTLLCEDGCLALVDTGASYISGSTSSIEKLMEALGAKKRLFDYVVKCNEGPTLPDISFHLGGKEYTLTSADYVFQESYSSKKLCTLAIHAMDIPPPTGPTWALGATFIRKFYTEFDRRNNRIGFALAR
The experiment in a line: FRET Assay: Inhibition activity of renin using FRET assay.
A word on the IC50: it is the midpoint of a concentration-inhibition curve. `CCOC[C@@H](CC(C)C)NC(=O)[C@@H]1CNC[C@H](C(=O)N(c2cc(OC)c(C(C)C)cn2)C2CC2)C1` showed a 50% inhibitory concentration (IC50) of 0.9 nM.

In the case of `CCOC[C@@H](CC(C)C)NC(=O)[C@@H]1CNC[C@H](C(=O)N(c2cc(OCC)c(CC)cn2)C2CC2)C1`, the midpoint of inhibition, the IC50, lay at 0.6 nM.

Regarding `CCOC[C@@H](CC(C)C)NC(=O)[C@@H]1CNC[C@H](C(=O)N(c2ccc(C(C)C)cn2)C2CC2)[C@@H]1O`, half-maximal inhibition (IC50) was put at 2 nM.

`CCOC[C@@H](CC(C)C)NC(=O)[C@@H]1CNC[C@H](C(=O)N(c2cc(OCCCOC)c(C(C)C)cn2)C2CC2)[C@@H]1O` displayed a 50% inhibitory concentration (IC50) of 0.4 nM.

Take `CCOC[C@H](NC(=O)[C@@H]1CNC[C@H](C(=O)N(c2ccc(C(C)C)cn2)C2CC2)C1)C(C)C`: 0.9 nM corresponded to half-maximal inhibition (IC50).

In turn, `CCOC[C@@H](NC(=O)[C@@H]1CNC[C@H](C(=O)N(c2cc(OC)c(C(C)C)cn2)C2CC2)C1)C1CCCCC1` showed an IC50 of 0.3 nM.

For the molecule `CCOC[C@@H](CC(C)C)NC(=O)[C@@H]1CNC[C@H](C(=O)N(CC(C)C)c2cc(OC)c(C(C)C)cn2)C1`, the IC50 is 0.8 nM.

In the case of `CCOC[C@@H](CC(C)C)NC(=O)[C@@H]1CNC[C@H](C(=O)N(c2ccc(C(C)(C)OC)cn2)C2CC2)[C@@H]1O`, inhibition was half-maximal at 2 nM (IC50).

These data come from ChEMBL document CHEMBL3639303, “Organic compounds” (2013).
